Test: wn = mass fraction of the nth substance listed
Settings: 101 kPa, Liquid

NC(CO)(CO)CO [2-amino-2-(hydroxymethyl)-1,3-propanediol] + O
Settings	mass density, w1 = 0.0217 [kg/m3]	mass density, w1 = 0.051 [kg/m3]	mass density, w1 = 0.103 [kg/m3]	mass density, w1 = 0.158 [kg/m3]	mass density, w1 = 0.217 [kg/m3]	viscosity, w1 = 0.0217 [mPa·s]	viscosity, w1 = 0.051 [mPa·s]	viscosity, w1 = 0.103 [mPa·s]	viscosity, w1 = 0.158 [mPa·s]	viscosity, w1 = 0.217 [mPa·s]
298 K	1001.3	1009	1021.6	1033.6	1046.5	0.913	0.995	1.148	1.353	1.605
303 K	999.6	1007.4	1019.2	1031.8	1044.2	0.874	0.94	1.059	1.223	1.449
313 K	994.9	1002.8	1014.6	1026.8	1038.9	0.733	0.799	0.884	1.008	1.172
323 K	988.1	996	1008.2	1019.9	1032.7	0.6	0.65	0.711	0.808	0.93

Reference: the NIST ThermoML archive (doi:10.1021/je800460a)
